This assay concerns the target JAK2 (Homo sapiens, UniProt O60674). The assay is described as follows: JAK2 Tyrosine Kinase Assay. Particulars: list of named compounds; read-out: IC50 in the JAK2 assay. In kind it is biochemical. As to the method: JAK2 Tyrosine Kinase Assay
The assays were performed in V-bottom 384-well plates. […] The reaction was initiated by the combination of JAK2 with substrates and test compounds. The reaction was incubated at room temperature for 60 min. and terminated by adding 45 μl of 35 mM EDTA to each sample. The reaction mixture was analyzed on the Caliper LabChip 3000 by electrophoretic separation of the fluorescent substrate and phosphorylated product. […] Compounds were dissolved at 10 mM in dimethylsulfoxide (DMSO) and evaluated at eleven concentrations, each in duplicate. IC50 values were derived by non-linear regression analysis

Chain of JAK2 (O60674 whole entry): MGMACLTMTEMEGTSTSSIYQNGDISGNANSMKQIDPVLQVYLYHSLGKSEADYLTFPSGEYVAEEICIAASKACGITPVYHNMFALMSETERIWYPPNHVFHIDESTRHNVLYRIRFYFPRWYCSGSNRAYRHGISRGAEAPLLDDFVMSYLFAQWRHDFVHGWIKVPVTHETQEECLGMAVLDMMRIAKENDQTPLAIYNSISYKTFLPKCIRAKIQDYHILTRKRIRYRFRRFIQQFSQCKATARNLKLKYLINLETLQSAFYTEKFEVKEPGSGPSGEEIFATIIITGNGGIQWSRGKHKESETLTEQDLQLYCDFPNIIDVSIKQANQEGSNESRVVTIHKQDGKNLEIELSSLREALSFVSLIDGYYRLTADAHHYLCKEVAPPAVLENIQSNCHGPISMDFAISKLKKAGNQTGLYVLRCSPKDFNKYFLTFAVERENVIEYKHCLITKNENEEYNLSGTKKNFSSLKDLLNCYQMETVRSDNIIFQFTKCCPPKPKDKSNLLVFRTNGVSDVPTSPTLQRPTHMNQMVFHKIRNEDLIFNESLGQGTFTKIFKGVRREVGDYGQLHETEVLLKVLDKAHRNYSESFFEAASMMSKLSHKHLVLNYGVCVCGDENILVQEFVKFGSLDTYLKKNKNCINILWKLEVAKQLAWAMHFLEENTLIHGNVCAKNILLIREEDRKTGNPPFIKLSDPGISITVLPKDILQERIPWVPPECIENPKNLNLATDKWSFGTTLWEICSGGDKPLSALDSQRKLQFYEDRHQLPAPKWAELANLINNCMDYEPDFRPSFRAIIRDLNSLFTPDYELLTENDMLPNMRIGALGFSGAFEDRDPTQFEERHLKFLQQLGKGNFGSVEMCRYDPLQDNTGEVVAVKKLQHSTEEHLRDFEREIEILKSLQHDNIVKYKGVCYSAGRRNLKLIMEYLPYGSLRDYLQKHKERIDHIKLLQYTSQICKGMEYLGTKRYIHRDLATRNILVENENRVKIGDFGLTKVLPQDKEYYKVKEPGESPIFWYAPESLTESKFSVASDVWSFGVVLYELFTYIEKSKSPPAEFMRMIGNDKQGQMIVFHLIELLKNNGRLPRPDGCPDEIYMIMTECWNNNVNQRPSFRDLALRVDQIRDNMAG

`Cc1cc(Nc2nc(N3CCN(C(=O)Cc4ccc(Cl)cc4F)CC3)nn3cccc23)n[nH]1` [2-(4-((4-chloro-2-fluorophenyl)acetyl)-1-piperazinyl)-N-(5-methyl-1H-pyrazol-3-yl)pyrrolo[2,1-f][1,2,4]triazin-4-amine]: the IC50 is no more than 5 nM.

In the case of `Cc1cc(Nc2nc(N3CCN(C(=O)C4CC(=O)c5ccccc54)CC3)nn3cccc23)n[nH]1` (stereo not shown) [3-((4-(4-((5-methyl-1H-pyrazol-3-yl)amino)pyrrolo[2,1-f][1,2,4]triazin-2-yl)-1-piperazinyl)carbonyl)-1-indanone], the IC50 is no more than 5 nM.

In the case of `CC(=O)Nc1cccc(C(=O)N2CCN(c3nc(Nc4cc(C)[nH]n4)c4cccn4n3)CC2)c1` [N-(3-((4-(4-((5-methyl-1H-pyrazol-3-yl)amino)pyrrolo[2,1-f][1,2,4]triazin-2-yl)-1-piperazinyl)carbonyl)phenyl)acetamide], the IC50 is no more than 5 nM.

Take `Cc1cc(Nc2nc(N3CCN(C(=O)c4c(F)cccc4Cl)CC3)nn3cccc23)n[nH]1` [2-(4-(2-chloro-6-fluorobenzoyl)-1-piperazinyl)-N-(5-methyl-1H-pyrazol-3-yl)pyrrolo[2,1-f][1,2,4]triazin-4-amine]: the 50% inhibitory concentration (IC50) is no more than 5 nM.

As for `Cc1cc(Nc2nc(N3CCN(C(=O)[C@](C)(O)c4ccc(F)cc4)CC3)nn3cccc23)n[nH]1` [(2R)-2-(4-fluorophenyl)-1-(4-(4-((5-methyl-1H-pyrazol-3-yl)amino)pyrrolo[2,1-f][1,2,4]triazin-2-yl)-1-piperazinyl)-1-oxo-2-propanol], the IC50 is no more than 5 nM.

On to `Cc1ccc(C2(C(=O)N3CCN(c4nc(Nc5cc(C)[nH]n5)c5cccn5n4)CC3)CCCCC2)cc1` [2-(4-((1-(4-methylphenyl)cyclohexyl)carbonyl)-1-piperazinyl)-N-(5-methyl-1H-pyrazol-3-yl)pyrrolo[2,1-f][1,2,4]triazin-4-amine], for which the IC50 was no more than 5 nM.

With `Cc1cc(Nc2nc(N3CCN(C(=O)C4(c5ccccc5)CC4)CC3)nn3cccc23)n[nH]1` [N-(5-methyl-1H-pyrazol-3-yl)-2-(4-((1-phenylcyclopropyl)carbonyl)-1-piperazinyl)pyrrolo[2,1-f][1,2,4]triazin-4-amine], the IC50 was no more than 5 nM.

For the compound `Cc1cc(Nc2nc(N3CCN(C(=O)[C@@H](O)Cc4ccccc4)CC3)nn3cccc23)n[nH]1` [(2S)-1-(4-(4-((5-methyl-1H-pyrazol-3-yl)amino)pyrrolo[2,1-f][1,2,4]triazin-2-yl)-1-piperazinyl)-1-oxo-3-phenyl-2-propanol], the IC50 was no more than 5 nM.

`Cc1cc(Nc2nc(N3CCN(C(=O)c4c(C)cccc4Cl)CC3)nn3cccc23)n[nH]1` [2-(4-(2-chloro-6-methylbenzoyl)-1-piperazinyl)-N-(5-methyl-1H-pyrazol-3-yl)pyrrolo[2,1-f][1,2,4]triazin-4-amine]: the IC50 is no more than 5 nM.

For the compound `Cc1cc(Nc2nc(N3CCN(C(=O)Cc4ccc(OC(F)(F)F)cc4)CC3)nn3cccc23)n[nH]1` [N-(5-methyl-1H-pyrazol-3-yl)-2-(4-((4-(trifluoromethoxy)phenyl)acetyl)-1-piperazinyl)pyrrolo[2,1-f][1,2,4]triazin-4-amine], the IC50 is no more than 5 nM.

With `Cc1cc(Nc2nc(N3CCN(C(=O)c4sc5ccccc5c4Cl)CC3)nn3cccc23)n[nH]1` [2-(4-((3-chloro-1-benzothiophene-2-yl)carbonyl)-1-piperazinyl)-N-(5-methyl-1H-pyrazol-3-yl)pyrrolo[2,1-f][1,2,4]triazin-4-amine], the IC50 was no more than 5 nM.

For the compound `Cc1cc(Nc2nc(N3CCN(C(=O)C4(c5ccccc5)CCC4)CC3)nn3cccc23)n[nH]1` [N-(5-methyl-1H-pyrazol-3-yl)-2-(4-((1-phenylcyclobutyl)carbonyl)-1-piperazinyl)pyrrolo[2,1-f][1,2,4]triazin-4-amine], the IC50 is no more than 5 nM.

For the compound `Cc1cc(Nc2nc(N3CCN(C(=O)Cc4c(F)cccc4F)CC3)nn3cccc23)n[nH]1` [2-(4-((2,6-difluorophenyl)acetyl)-1-piperazinyl)-N-(5-methyl-1H-pyrazol-3-yl)pyrrolo[2,1-f][1,2,4]triazin-4-amine], the IC50 was no more than 5 nM.

Broadly, the IC50 is the concentration at which inhibition is half-maximal.

The record behind these values is patent US8445676B2, “Pyrrolotriazine kinase inhibitors” (Bristol-Myers Squibb Company, priority 2008, dated 2013).
